# Data from US8420657B2 (Novartis AG, priority 2008, dated 2013).
# What was measured:
# GST-JAK2(808-1132) = molecular target: T1, GST-JAK2(808-1132) (Homo sapiens, UniProt O60674); test: JAK2 kinase assay (Caliper mobility shift, LabChip 3000); format: biochemical
# T1 construct: GST-JAK2(808-1132); purchased Invitrogen (Carlsbad, USA) #4288
# In short: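 Recombinant GST-JAK2(808-1132) kinase domain with FITC-labelled JAK3tide peptide substrate and ATP; 60 min at 30 °C, EDTA stop. Substrate/product ratio read by microfluidic mobility shift; compounds at 8 final concentrations, 10 to 0.003 μM.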
# [1] = tested on: JAK2-dependent nuclear translocation of STAT5-GFP in U-2 OS osteosarcoma cells; test: STAT5 nuclear translocation assay (Cellomics), rhEpo stimulated U-2 OS STAT5-GFP cells; format: cell-based; settings: Homo sapiens, U2OS; STAT5 translocation pathway
# In short: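 U-2 OS cells stably expressing STAT5a-GFP and EpoR pre-treated with compound (final 10 μM to 0.003 μM, 0.1% DMSO) for 30 min at 37° C., then stimulated 1 h with 5 U/ml rhEpo. Nuclear-cytoplasmic GFP differential quantified by automated imaging (≥1000 cells/well, Hoechst nuclear mask). IC50 from % translocation normalized to untreated and DMSO-stimulated controls.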
# T1 sequence (O60674 808-1132): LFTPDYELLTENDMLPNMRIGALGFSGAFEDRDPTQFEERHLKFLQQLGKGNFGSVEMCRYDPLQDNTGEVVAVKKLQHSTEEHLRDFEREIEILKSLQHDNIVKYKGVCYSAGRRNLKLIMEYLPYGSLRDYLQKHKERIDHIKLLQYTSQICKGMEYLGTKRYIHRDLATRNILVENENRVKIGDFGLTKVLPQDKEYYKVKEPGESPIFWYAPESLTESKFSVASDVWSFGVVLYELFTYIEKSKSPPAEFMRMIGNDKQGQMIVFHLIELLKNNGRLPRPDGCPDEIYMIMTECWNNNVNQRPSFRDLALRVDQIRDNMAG
Compound,IC50 (GST-JAK2(808-1132)),IC50 [1]
"CC1(C)CN(Cc2ccc(Nc3ncc4ccn(-c5cc(F)c(CN6CCOCC6)c(F)c5)c4n3)cc2)CCN1 [Example 473, [7-(3,5-Difluoro-4-morpholin-4-ylmethyl-phenyl)-7H-pyrrolo[2,3-d]pyrimidin-2-yl]-[4-(3,3-dimethyl-piperazin-1-ylmethyl)-phenyl]-amine]",≤ 3 nM,12.3 nM
"Fc1cc(-n2ccc3cnc(Nc4ccc([C@H]5CNCCN5)cc4)nc32)cc(F)c1CN1CCOCC1 [Example 474, [7-(3,5-Difluoro-4-morpholin-4-ylmethyl-phenyl)-7H-pyrrolo[2,3-d]pyrimidin-2-yl]-((S)-4-piperazin-2-yl-phenyl)-amine]",≤ 3 nM,8.6 nM
"Fc1cc(-n2ccc3cnc(Nc4ccc([C@@H]5CNCCN5)cc4)nc32)cc(F)c1CN1CCOCC1 [Example 475, [7-(3,5-Difluoro-4-morpholin-4-ylmethyl-phenyl)-7H-pyrrolo[2,3-d]pyrimidin-2-yl]-((R)-4-piperazin-2-yl-phenyl)-amine]",≤ 3 nM,5.3 nM
"C[C@@H]1CN(Cc2ccc(Nc3ncc4ccn(-c5cc(F)c(CN6CCOCC6)c(F)c5)c4n3)c(F)c2)C[C@H](C)N1 [Example 477, [7-(3,5-Difluoro-4-morpholin-4-ylmethyl-phenyl)-7H-pyrrolo[2,3-d]pyrimidin-2-yl]-[4-(cis-3,5-dimethyl-piperazin-1-ylmethyl)-2-fluoro-phenyl]-amine]",17 nM,718 nM
"CN1CCN(c2ccc(Nc3ncc4ccn(-c5cc(F)c(CN6CCOCC6)c(F)c5)c4n3)cn2)C(=O)C1 [Example 478, 1-{5-[7-(3,5-Difluoro-4-morpholin-4-ylmethyl-phenyl)-7H-pyrrolo[2,3-d]pyrimidin-2-ylamino]-pyridin-2-yl}-4-methyl-piperazin-2-one]",5.5 nM,51 nM
"OC1CN(Cc2ccc(Nc3ncc4ccn(-c5cc(F)c(CN6CCOCC6)c(F)c5)c4n3)cc2)C1 [Example 479, 1-{4-[7-(3,5-Difluoro-4-morpholin-4-ylmethyl-phenyl)-7H-pyrrolo[2,3-d]pyrimidin-2-ylamino]-benzyl}-azetidin-3-ol]",3.5 nM,15 nM
"Fc1cc(-n2ccc3cnc(Nc4ccc(CN5CCOCC5)nc4)nc32)cc(F)c1CN1CCOCC1 [Example 480, [7-(3,5-Difluoro-4-morpholin-4-ylmethyl-phenyl)-7H-pyrrolo[2,3-d]pyrimidin-2-yl]-(6-morpholin-4-ylmethyl-pyridin-3-yl)-amine]",≤ 3 nM,71 nM
"COC1CN(Cc2c(F)cc(-n3ccc4cnc(Nc5ccc(C)c(CN6CCNCC6)c5)nc43)cc2F)C1 [Example 482, {7-[3,5-Difluoro-4-(3-methoxy-azetidin-1-ylmethyl)-phenyl]-7H-pyrrolo[2,3-d]pyrimidin-2-yl}-(4-methyl-3-piperazin-1-ylmethyl-phenyl)-amine]",≤ 3 nM,150 nM
"Cc1cc(Nc2ncc3ccn(-c4cc(F)c(CN5CCOCC5=O)c(F)c4)c3n2)cnc1N1C[C@@H](C)N[C@@H](C)C1 [Example 483, 4-(4-{2-[6-(cis-3,5-Dimethyl-piperazin-1-yl)-5-methyl-pyridin-3-ylamino]-pyrrolo[2,3-d]pyrimidin-7-yl}-2,6-difluoro-benzyl)-morpholin-3-one]",≤ 3 nM,12.3 nM
"C[C@@H]1CN(Cc2ccc(Nc3ncc4ccn(-c5cc(F)c(CN6CCOCC6=O)c(F)c5)c4n3)cc2)C[C@H](C)N1 [Example 484, 4-(4-{2-[4-(cis-3,5-Dimethyl-piperazin-1-ylmethyl)-phenylamino]-pyrrolo[2,3-d]pyrimidin-7-yl}-2,6-difluoro-benzyl)-morpholin-3-one]",≤ 3 nM,67 nM
"Cc1ccc(Nc2ncc3ccn(-c4cc(F)c(CN5CCOCC5=O)c(F)c4)c3n2)cc1CN1CCNCC1 [Example 485, 4-{2,6-Difluoro-4-[2-(4-methyl-3-piperazin-1-ylmethyl-phenylamino)-pyrrolo[2,3-d]pyrimidin-7-yl}-benzyl]-morpholin-3-one]",≤ 3 nM,110 nM
